Experimental data from patent US10034896B2, “Compositions and methods for treatment of osteoporosis and other indications” (priority 2012, dated 2018).

Experiments:
[1] = Nitric oxide gas bubbled through carrier, weight gain; type: physicochemical; details: NO gas bubbled 40 hr, 25 ° C.
Procedure: This example illustrates one technique for preparing a composition in accordance with one embodiment of the invention. An accurate amount of a carrier (HNC 167-62) (see below) was introduced into a system. The carrier weight used in these experiments was approximately 250 g and the vessel size was 500 ml. The vessel was equipped with a mechanical stirrer, gas inlet, and gas outlet and was previously purged with argon for about an hour. The temperature of the carrier was kept at about 25-30° C. NO gas regulated at 5 psi (1 psi is about 6,900 Pa) and was then introduced at a controlled rate of about 1 bubble/s with continuous stirring. […] After 6 hours, the weight of the carrier had increased by 0.15%, by 12 hours by 0.25%, and by 24 hours by 0.56%. These increases in weight were believed to be significant considering the relative small molecular weight of NO versus the carrier. […] The carrier also can solidify upon cooling if the carrier is initially a solid at lower temperature.
Each carrier was taken in a 500 mL three necked flask equipped with a mechanical stirrer, gas inlet and a gas outlet. The system was purged with argon for one hour at room temperature (25° C.). Then nitric oxide gas was bubbled into the system. Then, nitric oxide gas was bubbled through carrier for stipulated amount of time. The changes in weight and color were noted. […]

[2] = test system: micro-capillary blood flow to skin; test: Laser Doppler study in closed Hilltop chamber on forearm, Example 5; type: in vivo, human; details: applied to the skin at 1/10% in alcohol
Excerpt: The formulation used in these studies contained nitric oxide dispersed in a lipid matrix. […] Nitric oxide is a very rapid acting molecule, and these studies used a system that employed laser Doppler with a covered chamber. The formulation was placed into the chamber and then attached to the skin by an adhesive layer on the covering. This provided a stable measuring device as determined by multiple normal evaluations of the capillary blood flow without treatment of nitric oxide.
A known positive control, methyl nicotinate, was applied to the skin at a concentration of 1/10% in alcohol. […] The vascular dynamics are such that when the blood vessels dilate physical parameters follow Bernoulli's law. […] The laser Doppler device accurately measured these parameters.
In these studies, the participants were healthy females aged 30 to 55 years. They were in good health as determined by the medical history and were not taking any prescription medications. All study participants read and signed the informed consent statement prior to any study procedures being performed. […]
A Moor Instruments DRT4 Laser Doppler Blood Flow Monitor (Devon, England) was used in these studies. The laser Doppler technique measured blood flow in the microcapillaries of the skin that are close to the skin surface and the blood flow in underlying arterioles and venules that help to regulate skin temperature. […]

[3] = test system: capillary circulation of the skin; test: Laser Doppler study of creams in five human subjects, Example 7; type: in vivo; details: positive control formulation containing 0.1% methyl nicotinate
Excerpt: This example illustrates delivery of nitric oxide formulations to five human subjects, using procedures and formulations similar to those discussed in Example 5. Each person served as their own control for the testing. A Moor Instruments Laser Doppler was used to determine circulation. […] The formulations used produce positive, almost immediate results when applied to the skin which, in these studies, was manifested by vasodilatation of the cutaneous vascular system.
For each subject, the following creams were applied: a negative control formulation (containing no NO), 0.010 gram of a 10,000 ppm NO formulation, 0.020 gram of a 10,000 ppm NO formulation, and a positive control formulation containing 0.1% methyl nicotinate. The formulations were prepared using procedures similar to those discussed in Example 1.

Row | SMILES | % Wt. gain [1] | laser Doppler response to positive control [2] | vasodilatation (laser Doppler) [3]
1 | OCCCO [1,3-Propanediol, 1,3-propanediol] | 0.09% | – | –
2 | COC(=O)c1cccnc1 [methyl nicotinate] | – | rapid response typical of the vasodilator | vasodilatation was observed
